Reference: US11572344B2, “Cyanoaryl-aniline compounds for treatment of dermal disorders” (NFlection Therapeutics, Inc., priority 2018, dated 2023)

Tested on: pERK in human cutaneous neurofibroma explants
Assay: Human cutaneous neurofibroma explant pERK suppression (Western blot)
Format: cell-based
Description: Explant Protocol: Human cutaneous neurofibroma explant samples were collected in DMEM/F-12 (Thermo Fisher, Cat #11320033) supplemented with 1×B27 supplement (Thermo Fisher, Cat #17504044), 2.5 μg/ml of Amphotericin B (Thermo Fisher, Cat #15290018), and 50 units/ml of Penicillin-50 μg/ml of Streptomycin (Thermo Fisher, Cat #15070063) and incubated in the same medium for subsequent treatment. The specimen was cut into small cubes containing both the epidermis and dermis. The tissues were partially submerged in the medium in 384-well plate with the epidermis exposed to the air.
The tissues were fully submerged in the medium in 48-well plate and 5 μl of compounds dissolved in DMSO were added to 200 μl of the medium in each well. After 4 h incubation at 37° C. and 5% CO2, the tissues were harvested and half of the specimen was flash frozen in liquid nitrogen for Western Blot analysis. The other half of the specimen was fixed for 24 hours in 10% formalin and then transferred to 70% ethanol for […].
Skin samples were thawed on ice and weighed. 10 volume (10 μl for each mg of tissue) of lysis buffer (RIPA buffer+0.5 mM EDTA+1×Halt protease and phosphatase inhibitor cocktail) was then added to each sample. […]
Western Blot analysis: The lysate was thawed on ice and protein concentration was determined by the BCA protein assay kit using bovine serum albumin (BSA) as standards. […]

N#Cc1ccc(C(=O)NOCCO)c(Nc2ccc(I)cc2F)c1F [Compound 1.030, 4-cyano-3-fluoro-2-((2-fluoro-4-iodophenyl)amino)-N-(2-hydroxyethoxy) benzamide]
suppression of pERK in human cutaneous neurofibroma (cNF) explants (concentration of 500 nM (FIG. 5)): suppression of pERK
suppression of pERK in human cutaneous neurofibroma (cNF) explants (treatment for 4 hours at 5 nM, 50 nM, and 500 nM (FIG. 4)): suppression of pERK
